The source of these data is US20230142274A1 (SIMCERE PHARMACEUTICAL CO., LTD., priority 2020, published 2023).

In one assay the test system is Daudi cells. Description: Inhibition of human Daudi lymphoma cell proliferation (Cell-Titer Glo). Type of assay: cell-based. As to conditions: 3 days incubation, read-out: Anti-Proliferative Activity Against Daudi cells IC50. A digest of the protocol: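 Daudi cells in RPMI 1640 with 10% FBS were seeded and grown 24 h, then exposed for 3 days (37 °C, 5% CO2) to 10-point 3-fold serial dilutions at 0.25% final DMSO. Viability was read by CellTiter-Glo ATP luminescence, and IC50 was fitted from % inhibition against top/bottom controls.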

The next assay concerns WI-38 cells. Description: Inhibition of human WI-38 embryonic lung cell proliferation (Cell-Titer Glo). Type of assay: cell-based. Particulars: Homo sapiens, 72 h, 3 days incubation, read-out: Anti-Proliferative Activity Against WI-38 cells IC50. A digest of the protocol: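 WI-38 cells in EMEM with 10% FBS, seeded 24 h, then exposed to 10-point 3-fold compound dilutions (0.25% DMSO final) for 3 days at 37 °C, 5% CO2. Viability from intracellular ATP by Cell-Titer Glo luminescence; % inhibition normalised to top/bottom signals and IC50 fitted.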

The structures appear in SMILES notation. Where two headings read alike, the source gives them in different places. Where only a bound is given, the exact number is not on record here.

Turning to `CC(C)OC(=O)Nc1ccc(-c2cnc([C@H]3CC[C@H](NC(=O)OC(C)C)CC3)s2)c(S(=O)(=O)C(C)C)c1` [Example 2, isopropyl trans-N-[4-[2-[4-(isopropoxycarbonylamino)cyclohexyl]thiazol-5-yl]-3-isopropylsulfonyl-phenyl]carbamate], the IC50 (commonly the point on the concentration scale where inhibition reaches its midpoint) in the assay with Daudi cells (Homo sapiens, 72 h) is 390 nM; in the assay on WI-38 cells it was above 25000 nM. In the same order, the values of `CC(C)OC(=O)Nc1ccc(-c2cnc([C@H]3CC[C@H](NC(=O)OC(C)C)CC3)s2)c(P(C)(C)=O)c1` [Example 1, isopropyl trans-N-[3-dimethylphosphoryl-4-[2-[4-(isopropoxycarbonylamino)cyclohexyl]thiazol-5-yl]phenyl]carbamate] are 1620 nM and above 25000 nM. For the compound `COc1ccc(-c2ccc(-c3cnc([C@H]4CC[C@H](NC(=O)OC(C)C)CC4)s3)c([S@@](=N)(=O)C3CC3)c2)cn1` (stereo in doubt) [Example 94], the IC50 in the assay with Daudi cells stood at 20 nM. Consider `CC(C)OC(=O)Nc1ccc(-c2cnc([C@H]3CC[C@H](NC(=O)OC(C)C)CC3)s2)c(S(=O)(=O)C2CC2)c1` [Example 33, isopropyl trans-N-[3-cyclopropylsulfonyl-4-[2-[4-(isopropoxycarbonylamino)cyclohexyl]thiazol-5-yl]phenyl]carbamate], for which the IC50 in the assay with Daudi cells (Homo sapiens, 72 h) was 100 nM; in the assay on WI-38 cells, above 25000 nM. In the same order, the values of `Cc1cc(Nc2ccc(-c3cnc([C@H]4CC[C@H](NC(=O)OC(C)C)CC4)s3)c(P3(=O)CCCC3)c2)n[nH]1` [Example 47, isopropyl trans-N-[4-[5-[4-[(5-methyl-1H-pyrazol-3-yl)amino]-2-(1-oxidophospholan-1-yl)phenyl]thiazol-2-yl]cyclohexyl]carbamate] are 30 nM and above 25000 nM. Regarding `Cc1cc(Nc2ccc(-c3cnc([C@H]4CC[C@H](NC(=O)OC(C)C)CC4)s3)c(S(=O)(=O)C3COC3)c2)n[nH]1` [Example 92, isopropyl trans-N-[4-[5-[4-[(5-methyl-1H-pyrazol-3-yl)amino]-2-(oxetan-3-ylsulfonyl)phenyl]thiazol-2-yl]cyclohexyl]carbamate], the IC50 in the assay on Daudi cells (Homo sapiens, 72 h) stood at 4 nM; in the assay with WI-38 cells, 19500 nM. In the case of `CC(C)OC(=O)Nc1ccc(-c2cnc(C3CCC(NC(=O)OC(C)C)CC3)s2)c(S(=N)(=O)C(C)C)c1` (stereo not drawn) [Example 3, isopropyl trans-N-[4-[2-[4-(isopropoxycarbonylamino)cyclohexyl]thiazol-5-yl]-3-(isopropylsulfonimidoyl)phenyl]carbamate], the IC50 in the assay on Daudi cells (Homo sapiens, 72 h) was 1080 nM; with WI-38 cells it was above 25000 nM. In the same order, the values of `CC(C)OC(=O)N[C@H]1CC[C@H](c2ncc(-c3ccc(Nc4cc5ccccn5n4)cc3S(=O)(=O)C3CC3)s2)CC1` [Example 57, isopropyl trans-(4-(5-(2-(cyclopropylsulfonyl)-4-(pyrazolo[1,5-a]pyridin-2-ylamino)phenyl)thiazol-2-yl)cyclohexyl)carbamate] are 7 nM and above 25000 nM.

As to `CC(C)OC(=O)N[C@H]1CC[C@H](c2ncc(-c3ccc(Nc4cn(C)nn4)cc3S(=N)(=O)C3CC3)s2)CC1` (stereo partly shown) [Example 54], the IC50 is 55 nM with Daudi cells (Homo sapiens, 72 h) and above 25000 nM with WI-38 cells.

Turning to `CC(C)OC(=O)N[C@H]1CC[C@H](c2ncc(-c3ccc(NC(=O)NCc4ccccc4)cc3S(=N)(=O)C3CC3)s2)CC1` (stereo partly drawn) [Example 65, isopropyl trans-(4-(5-(4-(3-benzylureido)-2-(cyclopropanesulfonimidoyl)phenyl)thiazol-2-yl)cyclohexyl)carbamate], the IC50 was 37 nM in the assay on Daudi cells (Homo sapiens, 72 h) and above 25000 nM with WI-38 cells. The matching figures for `CC(C)OC(=O)Nc1ccc(-c2cnc([C@H]3CC[C@H](NC(=O)OC(C)C)CC3)s2)c(S(=N)(=O)C2CC2)c1` (stereo partly drawn) [Example 68, isopropyl trans-N-[3-(cyclopropylsulfonimidoyl)-4-[2-[4-(isopropoxycarbonylamino)cyclohexyl]thiazol-5-yl]phenyl]carbamate]: 100 nM and above 25000 nM. The matching figures for `Cc1cc(Nc2ccc(-c3cnc([C@H]4CC[C@H](NC(=O)OC(C)C)CC4)s3)c(S(=N)(=O)C3CC3)c2)n(C)n1` (stereo partly drawn) [Example 98, isopropyl trans-(4-(5-(2-(cyclopropanesulfonimidoyl)-4-((1,3-dimethyl-1H-pyrazol-5-yl)amino)phenyl)thiazol-2-yl)cyclohexyl)carbamate]: 32 nM and above 25000 nM. For the compound `Cc1cc(Nc2ccc(-c3cnc([C@H]4CC[C@H](NC(=O)OC(C)C)CC4)s3)c(P3(=O)CCC3)c2)n[nH]1` [Example 103, isopropyl trans-(4-(5-(4-((5-methyl-1H-pyrazol-3-yl)amino)-2-(1-oxophosphetan-1-yl)phenyl)thiazol-2-yl)cyclohexyl)carbamate], the IC50 was 47 nM with Daudi cells (Homo sapiens, 72 h) and above 25000 nM in the assay on WI-38 cells. On to `CC(C)OC(=O)NC1CCC(c2ncc(-c3ccc(Nc4ccc(F)cn4)cc3S(=N)(=O)C3CC3)s2)CC1` (stereo not drawn) [Example 81, isopropyl trans-N-[4-[5-[2-(cyclopropylsulfonimidoyl)]-4-[(5-fluoro-2-pyridyl)amino]phenyl]thiazol-2-yl]cyclohexyl]carbamate], for which the IC50 was 40 nM with Daudi cells (Homo sapiens, 72 h) and 14000 nM with WI-38 cells. With `Cc1cc(Nc2ccc(-c3cnc([C@H]4CC[C@H](NC(=O)OC(C)C)CC4)s3)c(S(=O)(=O)C3CC3)c2)nn1C` [Example 49, isopropyl trans-(4-(5-(2-(cyclopropylsulfonyl)-4-((1,5-dimethyl-1H-pyrazol-3-yl)amino)phenyl)thiazol-2-yl)cyclohexyl)carbamate], the IC50 in the assay on Daudi cells (Homo sapiens, 72 h) was 6 nM; in the assay with WI-38 cells it was above 25000 nM. `CC(C)OC(=O)N[C@H]1CC[C@H](c2ncc(-c3ccc(Nc4n[nH]c5ccccc45)cc3S(=O)(=O)C3CC3)s2)CC1` [Example 56, isopropyl trans-(4-(5-(4-((1H-indazol-3-yl)amino)-2-(cyclopropylsulfonyl)phenyl)thiazol-2-yl)cyclohexyl)carbamate]: the concentration for half-maximal inhibition (IC50) was 7 nM in the assay on Daudi cells (Homo sapiens, 72 h) and above 25000 nM with WI-38 cells. The matching figures for `Cc1cc(Nc2ccc(-c3cnc(C4CCC(NC(=O)OC(C)C)CC4)s3)c(S(=N)(=O)C3CC3)c2)n[nH]1` (stereo not drawn) [Example 50, isopropyl trans-N-[4-[5-[2-(cyclopropylsulfonimidoyl)-4-]((5-methyl-1H-pyrazol-3-yl)amino]phenyl]thiazol-2-yl]cyclohexyl]carbamate]: 26 nM and above 25000 nM. In the same order, the values of `Cc1cc(Nc2ccc(-c3cnc([C@H]4CC[C@H](NC(=O)OC(C)C)CC4)s3)c(S(=O)(=O)C3CC3)c2)n[nH]1` [Example 48, isopropyl trans-(4-(5-(2-(cyclopropylsulfonyl)-4-((5-methyl-1H-pyrazol-3-yl)amino)phenyl)thiazol-2-yl)cyclohexyl)carbamate] are 6 nM and 15600 nM. The matching figures for `CC(C)OC(=O)Nc1ccc(-c2cnc(C3CCC(NC(=O)OC(C)C)CC3)s2)c([S+]([O-])C(C)C)c1` (stereo not drawn) [Example 32, isopropyl trans-N-[4-[2-[4-(isopropoxycarbonylamino)cyclohexyl]thiazol-5-yl]-3-isopropylsulfinyl-phenyl]carbamate]: 420 nM and 23000 nM.
